Laboratory results as given in patent publication US20230167068A1, “BENZOPYRAZOLE COMPOUND” (MEDSHINE DISCOVERY INC., priority 2019, published 2023).

Target: T1, CYP3A4 (Homo sapiens, UniProt P08684)
T1 construct: incubation system containing human liver microsomes, probe substrates, and co-factors; tissue Corning Inc. or other suppliers; host or cells: mixed (pooled) human liver microsomes
Assay: Human liver microsomal CYP repression experiment
Format: in vitro ADME
Method: The purpose of the research project was to evaluate the repression of the test sample on human liver microsomal cytochrome P450 isoenzyme (CYP3A4) using a 5-in-1 probe substrate of CYP isoenzyme.
Mixed human liver microsomes (HLM) were purchased from Corning Inc. (Steuben, New York, USA) or other suppliers and stored at temperatures below -70° C. before use.
The diluted series concentration of the test sample was added to the incubation system containing human liver microsomes, probe substrates, and co-factors of the circulating system, and the control without the test sample but with solvent was used as the enzyme activity control (100%). The concentration of metabolites produced by the probe substrate in the sample was determined by liquid chromatography-tandem mass spectrometry (LC-MS/MS). Non-linear regression analysis of the mean percent activity of the test sample versus concentration was performed using SigmaPlot (V. 11). The IC50 values were calculated by a three- or four-parameter inverse logarithmic equation.

T1 sequence (P08684 whole entry): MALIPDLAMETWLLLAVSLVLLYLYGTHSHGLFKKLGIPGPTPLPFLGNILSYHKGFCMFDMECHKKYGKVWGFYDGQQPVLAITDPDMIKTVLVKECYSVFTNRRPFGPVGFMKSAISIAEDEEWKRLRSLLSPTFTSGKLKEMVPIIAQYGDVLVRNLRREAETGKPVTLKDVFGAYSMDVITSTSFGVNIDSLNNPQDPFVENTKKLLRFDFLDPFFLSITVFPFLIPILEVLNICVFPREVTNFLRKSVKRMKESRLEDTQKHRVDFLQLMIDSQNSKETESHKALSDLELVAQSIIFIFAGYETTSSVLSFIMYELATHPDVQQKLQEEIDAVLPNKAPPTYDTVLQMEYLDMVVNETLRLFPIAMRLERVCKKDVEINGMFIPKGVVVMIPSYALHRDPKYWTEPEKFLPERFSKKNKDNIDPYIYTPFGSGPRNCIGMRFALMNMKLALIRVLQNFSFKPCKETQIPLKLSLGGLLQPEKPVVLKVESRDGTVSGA

SMILES: C[C@H](NC(=O)C(C)(F)F)[C@H](Oc1ccc2c(cnn2-c2ccc3nncn3c2)c1)c1cc(F)cc(F)c1 [WX019]
- repression on CYP3A4 (in words) (conclusion on Table 3): significantly improve the repression of CYP3A4
- IC50 (mixed human liver microsomes, 5-in-1 probe substrate): 9.12 µM
